Peptide text beside a SMILES is read from it.
How the values were obtained:
hippocampal neurons = assay: Neurite outgrowth from hippocampal neurons; details: for neurite outgrowth in dose-response study: bell-shaped dose-response curve, 24 h
Method: Neurons were grown on Permanox plastic (Nunc, Denmark) for 24 h at a density 6250 cells/cm^2, at 37° C., 5% CO2 in Neurobasal medium containing 20 mM Hepes, 100 U/ml penicillin, 100 μg/ml streptomycin, 0.4% BSA supplemented with B27 (Gibco BRL, USA). After 24 h, cells were fixed with paraformaldehyde, stained with Coomassie Brilliant Blue R250 and analyzed.
To test this assumption, dissociated neurons from embryonic rat hippocampus were seeded on plastic and allowed to grow for 24 h in the presence of the below described compounds. Thereafter, cells were fixed with paraformaldehyde, stained with Coomassie Brilliant Blue R250 and the length of neurites was measured using a stereological approach (Rønn et al., 2000).
Peptides derived from the FG-lops of the neural cell adhesion molecules L1 and NCAM (third F3-module of L1 and first F3 module of NCAM) were prepared in different lengths, see FIG. 9a, and their effect on neurite outgrowth from primary hippocampal neurons were tested adding the various peptides in a concentration of 25 microM.

FGF-receptor 1 = biological target: T1, FGF-receptor 1 (Homo sapiens, UniProt P11362); assay: FGF-receptor phosphorylation in transfected HEK293 cells (immunoblotting); assay type: cell-based; details: 25 μM, 20 min, HEK293 cells with His-tagged FGF-receptor 1
T1 construct: expressed in transfected cells; host or cells: HEK293, transient, PcDNA3.1(+) plasmid
Method: Cells were grown in DMEM 1965 with 10% FCS, 100 U/ml penicillin, 100 μg/ml streptomycin and 58.4 g/l Glutamax. ˜0.8*10^6 cells were plated in 60 mm plates and cultured for 24 hrs before being transfected using LipofectAMIN PLUS™ reagent kit according to manufacturers instructions (Gibco BRL) with 0.2 μg PcDNA3.1(+) plasmid encoding a his-tagged (C-terminal hexa-histidine) version of FGFR-1. Cells were grown another 24 hrs in full medium, and then shifted to starving media (DMEM 1965 with 0.5% FCS) overnight.
FGFR-1 transfected cells, incubated with 50 μg/ml NCAM derived recombinant fIII.2 or FG-loop for 20 minutes or non-stimulated, were lysed in 8M urea in PBS with 1 mM orthovanadate. The FGFR-1 was purified from total lysate via the His-tag moiety on an IMAC column. […] Samples were added SDS-PAGE sample buffer and analysed by western blotting using anti-pentahis ab (#34660 Qiagen) or anti-phosphotyrosine ab (PY20) (#11120 Transduction Laboratories). Bands were visualised by chemilumiscense and density was measured using a GeneGnome from SynGene with a 16 bit camera.
Therefore, HEK293 cells were grown for 24 h on plastic plates, and subsequently transfected with a His-tagged version of the FGF-receptor 1 and cultured for another 24 h. […] The purified FGF-receptor 1 was then analyzed by immunoblotting using antibodies either to the His-tag or phosphotyrosine. […]

[1] = test system: Cerebellar granule neurons; assay: Survival assay of cerebellar granule neurons in low potassium (MTS); assay type: cell-based, rat; details: 5 mM potassium, two days; for cells surviving, high potassium set at 100%: serum-free
Method: Cerebellar granule neurons (CGN) from 7-days old rats are grown for 7-8 days in the presence of high potassium (40 mM). Cells are washed twice with serum-free culture medium (basal Eagle's medium BME) containing low potassium (5 mM) and grown in serum-free medium supplemented with FGL peptide for two days. Cultures are assayed for cell survival (D'Mello et al., 1997; Villalba et al., 1997; Skaper et al., 1998) by measuring reduction of MTS. MTS is a novel tetrazolium compound (Promega, USA), which is bioreduced by cells into a formazan that is soluble in tissue culture medium. The absorbance of the formazan at 490 nm is measured directly from 96 well assay plates without additional processing. The conversion of MTS into the aqueous soluble formazan is accomplished by dehydrogenase enzymes found in metabolically active cells. The quantity of formazan product as measured by the amount of 490 nm absorbance is directly proportional to the number of living cells in culture (Yao and Cooper, 1995);

T1 sequence (P11362 22-822): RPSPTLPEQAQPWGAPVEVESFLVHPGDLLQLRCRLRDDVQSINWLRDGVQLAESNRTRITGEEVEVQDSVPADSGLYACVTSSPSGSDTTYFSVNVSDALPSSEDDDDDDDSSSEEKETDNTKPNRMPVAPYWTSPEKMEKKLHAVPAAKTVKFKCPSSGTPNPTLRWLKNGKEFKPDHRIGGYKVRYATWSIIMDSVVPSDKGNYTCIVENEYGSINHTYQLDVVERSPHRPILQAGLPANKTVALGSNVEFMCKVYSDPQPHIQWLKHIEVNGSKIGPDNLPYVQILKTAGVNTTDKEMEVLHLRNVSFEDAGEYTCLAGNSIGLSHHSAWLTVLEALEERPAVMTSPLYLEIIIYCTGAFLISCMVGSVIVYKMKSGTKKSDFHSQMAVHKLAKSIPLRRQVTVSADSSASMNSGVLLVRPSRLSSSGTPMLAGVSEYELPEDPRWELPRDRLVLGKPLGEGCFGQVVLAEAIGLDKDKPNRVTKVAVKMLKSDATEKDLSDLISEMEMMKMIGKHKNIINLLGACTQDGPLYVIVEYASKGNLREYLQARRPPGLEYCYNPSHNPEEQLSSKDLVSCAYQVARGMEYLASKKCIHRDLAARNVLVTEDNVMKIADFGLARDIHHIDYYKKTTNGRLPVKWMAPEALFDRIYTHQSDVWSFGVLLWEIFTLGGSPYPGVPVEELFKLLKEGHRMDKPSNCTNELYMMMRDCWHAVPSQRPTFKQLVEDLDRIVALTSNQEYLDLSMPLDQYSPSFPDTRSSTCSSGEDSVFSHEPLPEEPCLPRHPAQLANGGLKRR

## CC(C)[C@H](NC(=O)[C@H](Cc1ccc(O)cc1)NC(=O)[C@@H](NC(=O)[C@@H](N)CCC(=O)O)C(C)C)C(=O)N[C@H](C(=O)N[C@@H](C)C(=O)N[C@@H](CCC(=O)O)C(=O)N[C@@H](CC(N)=O)C(=O)N[C@@H](CCC(N)=O)C(=O)N[C@@H](CCC(N)=O)C(=O)NCC(=O)N[C@@H](CCCCN)C(=O)N[C@@H](CO)C(=O)N[C@@H](CCCCN)C(=O)N[C@@H](C)C(=O)O)C(C)C [FG loop peptide] (H-EVYVVAENQQGKSKA-OH)
Hippocampal neurons; 5 μM second F3 module or 50 μM FG loop peptide
  inhibition of induced neurite outgrowth by an antibody against the FGF-receptor: complete inhibition
Hippocampal neurons
  neurite outgrowth in dose-response study: induced neurite outgrowth
FGF-receptor 1
  increase of FGF-receptor phosphorylation compared to control cells: approx. 100%
[1]; 250 microgram per ml, monomeric form
  survival, % of the positive control: up to 90%
[1]; dose-range 2-250 microgram per ml
  survival, result in words: statistically significant survival

## AENQQGK [heptamer Ala 77-Lys 83]
Hippocampal neurons; 50 μM peptide
  stimulatory effect retained as compared to the entire (non-mutated) FG loop peptide: approximately 50%
Hippocampal neurons
  neurite outgrowth in dose-response study: induced neurite outgrowth
Hippocampal neurons; dose-response study
  neuritogenic efficiency compared with the extended form: less efficient than the extended form

## EVAVVAENQQGASAA (listed as Homo sapiens)
Hippocampal neurons; 50 μM peptide
  neuritogenic potency (neurite outgrowth), result in words: retained its neuritogenic potency
  stimulatory effect retained as compared to the entire (non-mutated) FG loop peptide: about 60%
Hippocampal neurons; 50 μM peptide, ATP 0.4 or 1 mM
  inhibition of the peptide's stimulatory effect by ATP: could no longer be inhibited by ATP

## AMKEDGR (listed as Homo sapiens)
Hippocampal neurons; 50 μM peptide
  neuritogenic potency (neurite outgrowth), result in words: to the same extent as the similar seven amino acids from the second F3 module of NCAM

## VAENQQGKS (listed as Homo sapiens) [nonamer Val 76-Ser 84]
Hippocampal neurons; 50 μM peptide
  stimulatory effect retained as compared to the entire (non-mutated) FG loop peptide: approximately 50%

## Nc1ncnc2c1ncn2[C@@H]1O[C@H](COP(=O)(O)OP(=O)(O)CP(=O)(O)O)[C@@H](O)[C@H]1O [AMP-PCP, reference compound]
Hippocampal neurons; 5 μM second F3 module, inhibitor 0.4 or 1 mM
  inhibition of the neuritogenic effect of the F3 module: complete inhibition
Hippocampal neurons; 0.4 or 1 mM
  effect on neurite outgrowth when added alone: did not have any effect

## basic fibroblast growth factor: growth factor, natural ligand of the FGF-receptor, comparison in the survival assay [reference compound]
[1]
  cells surviving, high potassium set at 100%: ~60%

B1: brains-derived neurotrophic factor: neurotrophic factor used as comparison in the survival assay (protein, UniProt P23560 19-247, looked up)
Neurotrophic factor BDNF …: APMKEANIRGQGGLAYPGVRTHGTLESVNGPKAGSRGLTSLADTFEHVIEELLDEDQKVRPNEENNKDADLYTSRVMLSSQVPLEPPLLFLLEEYKNYLDAANMSMRVRRHSDPARRGELSVCDSISEWVTAADKKTAVDMSGGTVTVLEKVPVSKGQLKQYFYETKCNPMGYTKEGCRGIDKRHWNSQCRTTQSYVRALTMDSKKRIGWRFIRIDTSCVCTLTIKRGR
[1]
  cells surviving, high potassium set at 100%: ~60%
